According to patent US20260374739A1, “SMALL MOLECULAR WEIGHT CHEMICAL COMPOUND TO ANTAGONIZE EPH-EPHRIN TETRAMERIZATION AND INHIBIT BIDIRECTIONAL SIGNALING” (THE BOARD OF REGENTS OF THE UNIVERSITY OF TEXAS SYSTEM, priority 2022, published 2026):
Where “and” joins values, the source holds several entries; their conditions need not be identical. Identical values can stand only once. Like-named read-outs stand apart in the source and are kept apart here.

Molecular target: T1, EphrinB2-EphB1 (Homo sapiens, UniProt P54762)
T1 construct: soluble human EphB1-His, EphB2-His, and EphB4-His ectodomains; commercially available human EphrinB1-Fc (EB1), EphrinB2-Fc (EB2), and EphrinB3-Fc (EB3) ectodomain proteins; purchased
T1 sequence (P54762 18-540 limits assumed): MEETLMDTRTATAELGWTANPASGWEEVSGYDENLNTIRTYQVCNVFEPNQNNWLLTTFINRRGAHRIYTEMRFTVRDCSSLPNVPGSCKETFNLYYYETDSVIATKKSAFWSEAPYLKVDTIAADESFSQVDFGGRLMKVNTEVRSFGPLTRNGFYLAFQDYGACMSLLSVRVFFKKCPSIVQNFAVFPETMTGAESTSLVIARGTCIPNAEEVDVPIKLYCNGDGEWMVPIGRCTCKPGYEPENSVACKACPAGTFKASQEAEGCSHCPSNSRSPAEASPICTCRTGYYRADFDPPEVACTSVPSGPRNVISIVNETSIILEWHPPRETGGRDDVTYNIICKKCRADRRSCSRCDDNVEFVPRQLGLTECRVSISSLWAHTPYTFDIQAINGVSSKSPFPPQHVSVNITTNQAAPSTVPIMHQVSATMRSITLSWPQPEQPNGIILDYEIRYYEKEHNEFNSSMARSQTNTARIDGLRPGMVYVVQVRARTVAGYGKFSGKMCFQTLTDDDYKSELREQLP
Experiment: Octet, immobilized human EphrinB2 binding to 50 nM soluble human EphB1
Protocol: Studies were conducted to confirm that A20 chemicals can effectively target the human Eph/Ephrin proteins. Octet system was used to first characterize the biophysical interactions of the human B class Eph and Ephrin proteins, and then was tested to assess how A20 may disrupt the interactions. Since the human and rodent proteins are highly conserved, and essentially identical, with EphB2 sharing 99.5% identity between human and mouse, with only 5 of ~1,000 amino acids different, any species-specific differences were not anticipated. Therefore, commercially available human EphrinB1-Fc (EB1), EphrinB2-Fc (EB2), and EphrinB3-Fc (EB3) ectodomain proteins were sparsely immobilized onto biosensors and then exposed to 50 nM of soluble human EphB1-His, EphB2-His, and EphB4-His ectodomains for 800 sec association and 1,000 sec dissociation steps with a total of nine different interactions analyzed. In the absence of A20 chemical, the immobilized human EphrinB proteins bound to their appropriate human EphB target proteins; with EphrinB1 only bound EphB1 and EphB2, EphrinB2 bound all three EphB1, EphB2, and EphB4, and EphrinB3 only bound EphB1 and EphB2 (FIG. 19A-19B).
The Octet studies shown in FIG. 19A-19F, and FIG. 20A-20C, and Table 2 using human proteins involved runs in which 1, 10, and 100 μM concentrations of the A20.2×HCl salt were included to determine how compound would affect binding kinetics. The sensorgrams for immobilized human EphrinB2 binding to EphB2 and EphB4 with 0, 1, 10, and 100 μM concentrations of A20 salt provide good examples of how the compound can alter Eph-Ephrin protein-protein interaction dynamics. […] This indicates the effective/relative IC50 for A20 is well below 1 μM (more accurate IC50 calculations are provided below). Notwithstanding, if just the sensorgram responses for 0 and 1 μM A20 are analyzed for absolute IC50 calculations (FIG. 21B), it is clear the compound is a much stronger inhibitor of the EB2-EphB2 interaction whether assessed near the end of association step (blue star), shortly after start of dissociation step (gold star), or by AUC, as all provide absolute IC50 values −1 μM. […] For EphB2-EB2, the slope went from 20° to 10° in the presence of A20 and for EphB4-EB2 from 5° to 3°. The reduced slope later in the association step indicates the A20 compound is specifically affecting accumulation of the stable tetramer.
Addition of compound also altered dissociation kinetics. […] This is referred to as the “unsurmountable” component of the Eph-Ephrin interaction (FIG. 21C). Additionally, AUC data was graphed for these runs (FIG. 21D). […] For EB2-EphB4, the dimer:tetramer ratio was 83:8 in the presence of A20 and was not much different from the no compound control run because it is already a strong dimer-driven interaction. […] A similar though more muted effect of A20 on tetramer accumulation was also observed for the other interactions of immobilized human EphrinB binding to soluble human EphB1 and EphB2 ectodomains (FIG. 22). The inhibitory effect of A20 is strongest on the EB2-EphB2 interaction with absolute IC50 reaching 1 μM, followed by the EB2-EphB1 interaction with absolute IC50-10 μM. […] The “unsurmountable” component of the EB2-EphB1 interaction was-50% of the tetramer species (14:41) whereas that for EB2-EphB2 interaction is-30%.
Further to the experiments listed above, a series of dose-response experiments were conducted to determine the IC50 of a selected A20 chemical (A20-1) on the kinetics of human EphrinB2 ligand ectodomain protein binding to its cognate human EphB1, EphB2, and EphB4 receptor ectodomain proteins. FIG. 74A-74C are representative sensorgrams showing the effect of 0, 0.1, 0.2, 0.4, 0.8, 1.6, and 3.2 μM, concentrations of the 2×HCl salt of A20-I along with a 10 μM max standard (also A20-1) on three different Ephrin-EphB interactions (e.g., EphB1 in FIG. 74A, EphB2 in FIG. 74B and EphB4 in FIG. 74C). […]

[1] = Table B, EphrinB2-EphB1, read-out: Relative Association IC50 (300 sec)

Row | Structure (SMILES) | IC50 [1] | IC50 (A20 salt, read-out: absolute IC50) | IC (maximum) (read-out: concentration producing maximum inhibition) | IC50 (Table B, EphrinB2-EphB1, read-out: Absolute AUC/IC50) | IC50 (Table B, EphrinB2-EphB1, read-out: Absolute Dissociation IC50 (450 sec)) | IC50 (Table B, EphrinB2-EphB1, read-out: Relative AUC/IC50) | IC50 (Table B, EphrinB2-EphB1, read-out: Relative Dissociation IC50 (450 sec))
1 | Oc1c(I)cc(CN2CCOCC2)c2cccnc12 [Compound 8, 4-((8-hydroxy-7-iodoquinolin-1-ium-5-yl)methyl)morpholin-4-ium chloride] | 1140 nM |  |  |  |  |  | 
2 | Oc1c(Br)cc(CN2CCOCC2)c2cccnc12 [Compound 5, 7-bromo-5-(morpholinomethyl)quinolin-8-ol] |  | ~10000 nM | 10 µM |  |  |  | 
3 | Oc1c(Br)cc(CN2CCN(c3ccc(Br)cc3)CC2)c2cccnc12 [Compound 30, 7-bromo-5-((4-(4-bromophenyl)piperazin-1-ium-1-yl)methyl)-8-hydroxyquinolin-1-ium chloride] | 150 nM and 1100 nM |  |  | 160 nM | 330 nM | 60 nM | 70 nM
